Square brackets hold non-standard residues; d marks the D form. Ends that are not written are not given here. Alexa Fluor 488 = Alexa Fluor 488 C5-maleimide dye; Nle = CCCC[C@H](N)C(=O)O
Key:
ovarian hOCSC xenografts = test: hOCSC xenografts treated with single agents or combined with carboplatin; type: in vivo, mice; details: docetaxel 10 mg/kg; TH1902 23 mg/kg; paclitaxel 10 mg/kg; carboplatin 40 mg/kg; day 18
Method: Mice bearing ovarian hOCSC xenografts were treated with vehicle, docetaxel, paclitaxel, TH1902 or carboplatin, and other groups of mice were administered carboplatin in combination with either docetaxel, paclitaxel or TH1902. To minimize the risk of side effects resulting from combining treatments, the dosages used for each drug were reduced to the following: docetaxel 10 mg/kg; TH1902 23 mg/kg (equivalent to the docetaxel dosage); paclitaxel 10 mg/kg; carboplatin 40 mg/kg (unchanged).

hBCSCs = test: Internalization of TH19P01-Alexa Fluor 488 by hBCSCs (flow cytometry); type: cell-based, human; details: 200 nM, 2 hours, vs vehicle-treated cells
Method: Assessment of Intracellular Fluorescence with TH19P01-Alexa Fluor™ 488. hBCSC were grown in 12-well plates in complete media for 24 hours. […] In another experiment, siScrambled- or siSORT1-transfected cells were washed with HBSS and incubated in HBSS in the presence or absence of 200 nM Alexa Fluor™ 488-labeled TH19P01. For both types of experiments, after 2 hours of incubation at 37° C., cells were washed with HBSS, trypsinized, washed again and fluorescence assessed in the FL1 channel using a C6 Accuri™ flow cytometer (BD Biosciences, San Jose, CA).

Sortilin = molecular target: T1, Sortilin (Homo sapiens, UniProt Q99523); test: Uptake of TH19P01-Alexa Fluor 488 by hBCSCs in the presence of competing Sortilin ligands; type: cell-based; details: 200 nM fluorescent peptide, 2 h, 10 μM neurotensin, 50 μM TH19P01 or 1 nM progranulin
T1 construct: host or cells: human triple-negative breast cancer stem cells (hBCSCs)
T1 sequence (Q99523 78-831): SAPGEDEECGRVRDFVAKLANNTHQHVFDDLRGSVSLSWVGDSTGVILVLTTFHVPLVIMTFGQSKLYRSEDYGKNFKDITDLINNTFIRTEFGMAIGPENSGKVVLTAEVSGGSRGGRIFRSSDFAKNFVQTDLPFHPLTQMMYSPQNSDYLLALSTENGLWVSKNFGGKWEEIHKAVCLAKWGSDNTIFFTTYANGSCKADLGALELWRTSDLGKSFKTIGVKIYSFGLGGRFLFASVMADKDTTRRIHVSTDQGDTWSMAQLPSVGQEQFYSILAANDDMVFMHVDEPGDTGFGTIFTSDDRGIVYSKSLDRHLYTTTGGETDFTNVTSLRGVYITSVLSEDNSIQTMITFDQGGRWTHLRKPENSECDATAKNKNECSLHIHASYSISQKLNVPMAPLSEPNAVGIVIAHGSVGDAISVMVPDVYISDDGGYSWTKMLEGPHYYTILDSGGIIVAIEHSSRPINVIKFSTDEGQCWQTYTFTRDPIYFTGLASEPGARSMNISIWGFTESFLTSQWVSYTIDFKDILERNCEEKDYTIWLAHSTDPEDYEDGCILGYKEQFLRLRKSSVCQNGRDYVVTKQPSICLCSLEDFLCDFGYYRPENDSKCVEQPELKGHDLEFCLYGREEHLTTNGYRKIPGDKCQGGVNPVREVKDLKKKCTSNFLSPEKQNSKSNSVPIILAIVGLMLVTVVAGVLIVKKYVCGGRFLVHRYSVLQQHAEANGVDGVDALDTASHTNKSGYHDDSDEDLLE

| Compound | inhibition of tumor growth, single agent (ovarian hOCSC xenografts) | decrease of intracellular fluorescence (internalization of TH19P01-Alexa Fluor 488) by competing agent (Sortilin) | further results |
| --- | --- | --- | --- |
| N.N.O=C([O-])C1(C(=O)[O-])CCC1.[Pt+2] [carboplatin] | practically equivalent to that seen with docetaxel |  |  |
| TH19P01-Alexa Fluor™ 488 (GVRAKAGVRN[Nle]FKSESYC(Alexa Fluor 488)) |  |  | fluorescent signal in cells versus background fluorescence (hBCSCs): an order of magnitude greater than the background fluorescence |
| progranulin [reference compound] |  | decrease significantly (p<0.01) by about half |  |
| CC(=O)O[C@H]1C(=O)[C@@]2(C)[C@H]([C@H](OC(=O)c3ccccc3)[C@]3(O)C[C@H](OC(=O)[C@H](O)[C@@H](NC(=O)c4ccccc4)c4ccccc4)C(C)=C1C3(C)C)[C@]1(OC(C)=O)CO[C@@H]1C[C@@H]2O [Paclitaxel, paclitaxel] | practically equivalent to that seen with docetaxel |  |  |
| GVRAKAGVRN(Nle)FKSESY (GVRAKAGVRN[Nle]FKSESY) [TH19P01] |  | decrease significantly (p<0.01) by about half |  |

Reference: US20240156971A1, “METHODS AND SORTILIN BINDING CONJUGATE COMPOUNDS FOR TARGETING CANCER STEM CELLS” (TRANSFERT PLUS, SOCIÉTÉ EN COMMANDITE, priority 2021, published 2024)
